Structures can show the parent of a compound that is named as a salt.
Test system: glucose 6-phosphate dehydrogenase
Assay: Stabilization of glucose 6-phosphate dehydrogenase in a reagent for measuring the activity of creatine kinase (residual activity after storage)
Type: biochemical
Conditions: 10 mM additive in reagent solution 1 (pH 6.6), activity immediately after preparation = 100%; for Residual activity after 3 months (%): stored at 10° C. for 3 months; for Residual Activity after 12 months (%): stored at 10° C. for 12 months

Compound | Residual activity after 3 months (%) | Residual Activity after 12 months (%)
NNC(=O)c1ccccc1 [II-1, benzoylhydrazine] | 100.1% | 87.6%
CNO [Compound I-9, N-methylhydroxylamine] | 100.1% | 80.3%
CCOC(=O)CNN [II-5, ethylhydrazinoaceate hydrochloride] | 75.4% | 28.3%
CCOC(=O)NN [II-12, ethyl carbazate] | 102.2% | 88.3%
NNC(=O)c1cccnc1 [II-4, nicotinic acid hydrazide] | 70.3% | 38.5%
CC(C)NNC(=O)c1ccncc1 [II-15, iproniazide] | 65.8% | 20.1%
Br.NNC1=NCCN1 [II-6, 2-hydrazino-2-imidazoline hydrobromide] | 89.2% | 58.5%
NCCNCCO [IV, 2-(2-aminoethylamino) ethanol] | 98.7% | 81.1%
Cl.NOCC(=O)O [Compound I-4, carboxymethoxylamine hydrochloride] | 99.9% | 88.9%
CC(C)(C)NO [Compound I-12, N-(tert-butyl)hydroxylamine] | 75.5% | 22.2%
Cc1ccccc1N(O)C(=O)c1ccccc1 [Compound I-7, N-benzoyl-N-(2-methylphenyl)hydroxylamine] | 81.5% | 25.6%
CON [Compound I-10, O-methylhydroxylamine] | 99.7% | 82.3%
NNC(=O)Nc1ccccc1 [II-14, 4-phenylsemicarbazide] | 99.9% | 86.5%
COC(=O)NN [II-8, methyl carbazate] | 99.8% | 86.5%
CN(C)C(=S)Cl [III, dimethylthiocarbamoyl chloride] | 80.3% | 43.2%
CCNC(=S)NN [II-13, 4-ethyl-3-thiosemicarbazide] | 90.2% | 62.1%
Cl.NO [Compound I-1, hydroxylamine hydrochloride] | 100.2% | 85.9%
O=C(C=Cc1ccccc1)N(O)c1ccccc1 [Compound I-8, N-cinnamoyl-N-phenylhydroxylamine] | 90.4% | 44.5%
O=C(c1ccccc1)N(O)c1ccccc1 [Compound I-6, N-benzoyl-N-phenylhydroxylamine] | 80.5% | 30.3%
Cl.ONC1CCCCC1 [Compound I-13, N-cyclohexylhydroxylamine hydrochloride] | 92.1% | 80.2%
NNC(=O)c1cc2ccccc2cc1O [II-7, 3-hydroxy-2-naphthoenic acid hydrazide] | 89.7% | 60.3%
CC(=O)NNC(N)=S [II-9, 1-acetylthiosemicarbazide] | 82.3% | 45.6%
CC(C)=NNC(N)=S [II-16, acetone thiosemicarbazone] | 79.8% | 41.5%
NO.O=C(O)C(=O)O [Compound I-3, hydroxylamine oxalate] | 98.2% | 89.2%
NO.NO.O=S(=O)(O)O [Compound I-2, hydroxylamine sulfate] | 99.8% | 88.7%
NC(=S)C(N)=S [II-17, dithiooxyamide] | 75.2% | 32.3%
Cc1cccc(N(O)C(=O)C=Cc2ccccc2)c1C [Compound I-11, N-cinnamoyl-N-2,3-xylylhydroxylamine] | 79.6% | 23.6%
Cl.NOCc1ccccc1 [Compound I-5, O-benzylhydroxylamine hydrochloride] | 96.8% | 78.9%
NNC(=O)C(=O)NN [II-3, oxalyldihydrazide] | 88.5% | 65.2%

Reference: patent US5424204A, “Method for stabilizing glucose 6-phosphate dehydrogenase with hydroxylamines, aldehyde scavengers, dimethylthiocarbamoyl chloride or 2-(2-aminoethylamino) ethanol” (Kyowa Medex Co., Ltd., priority 1993, dated 1995)
